These results are taken from patent US9073940B2, “Tricyclic pyrazol amine derivatives” (MERCK SERONO SA, priority 2009, dated 2015).

The test system of the assay is 4 PI3K isoforms (Human recombinant GST-PI3K). Description: PI3K scintillation proximity assay, best IC50 obtained with the four isoforms (alpha, beta, delta, gamma). It counts as biochemical. The following applies: best IC50 obtained with the four isoforms of PI3K; read-out: Best potency measured on the 4 PI3K isoforms. Background: In a scintillation proximity assay essentially only radioactivity close to the scintillant gives light.
As for `O=C(c1nn(-c2ccc(N3CCOCC3)cc2)c2c1CS(=O)(=O)c1ccccc1-2)N1CCOCC1` [Example 155, 3-(Morpholin-4-ylcarbonyl)-1-(4-morpholin-4-ylphenyl)-1,4-dihydrothiochromeno[4,3-c]pyrazole 5,5-dioxide], the IC50 came out at 3940 nM. The result for `COCCNc1ccc2c(c1)-c1c(c(C(=O)N3CCOCC3)nn1-c1ccccc1)CS2(=O)=O` [Example 156, N-(2-Methoxyethyl)-3-(morpholin-4-ylcarbonyl)-1-phenyl-1,4-dihydrothiochromeno[4,3-c]pyrazol-8-amine 5,5-dioxide] reads 902 nM; that for `O=C(c1nn(-c2cccc(-c3ccccc3)c2)c2c1CS(=O)(=O)c1ccccc1-2)N1CCOCC1` [Example 157, 1-Biphenyl-3-yl-3-(morpholin-4-ylcarbonyl)-1,4-dihydrothiochromeno[4,3-c]pyrazole 5,5-dioxide], 764 nM; that for `O=C(c1nn(-c2ccccc2)c2c1CS(=O)(=O)c1cc(C(F)(F)F)ccc1-2)N1CCOCC1` [Example 158, 3-(Morpholin-4-ylcarbonyl)-1-phenyl-7-(trifluoromethyl)-1,4-dihydrothiochromeno[4,3-c]pyrazole 5,5-dioxide], 3060 nM. Consider `COC1CCCN(C(=O)c2cccc(-n3nc(C(=O)N4CCOCC4)c4c3-c3ccccc3S(=O)(=O)C4)c2)C1` (centres unmarked) [Example 159, 1-{3-[(3-Methoxypiperidin-1-yl)carbonyl]phenyl}-3-(morpholin-4-ylcarbonyl)-1,4-dihydrothiochromeno[4,3-c]pyrazole 5,5-dioxide], for which the IC50 was determined as 246 nM. Take `Cc1ccccc1-c1cccc(-n2nc(C(=O)N3CCOCC3)c3c2-c2ccccc2S(=O)(=O)C3)c1` [Example 160, 1-(2′-Methylbiphenyl-3-yl)-3-(morpholin-4-ylcarbonyl)-1,4-dihydrothiochromeno[4,3-c]pyrazole 5,5-dioxide]: the IC50 was determined as 1080 nM. In the case of `Cc1ccccc1-c1ccc(-n2nc(C(=O)N3CCOCC3)c3c2-c2ccccc2S(=O)(=O)C3)cc1` [Example 161, 1-(2′-Methylbiphenyl-4-yl)-3-(morpholin-4-ylcarbonyl)-1,4-dihydrothiochromeno[4,3-c]pyrazole 5,5-dioxide], the IC50 turned out to be 6470 nM.

Turning to `O=C(c1nn(-c2ccccc2)c2c1CS(=O)(=O)c1ccc(CN3CCOCC3)cc1-2)N1CCOCC1` [Example 162, 3-(Morpholin-4-ylcarbonyl)-8-(morpholin-4-ylmethyl)-1-phenyl-1,4-dihydrothiochromeno[4,3-c]pyrazole 5,5-dioxide], the IC50 is 1620 nM.

With `CC1CN(C(=O)c2nn(-c3ccccc3)c3c2CS(=O)(=O)c2ccccc2-3)CCO1` (centres unmarked) [Example 163, 3-[(2-Methylmorpholin-4-yl)carbonyl]-1-phenyl-1,4-dihydrothiochromeno[4,3-c]pyrazole 5,5-dioxide], the IC50 is 2160 nM. For `Nc1ccc2c(c1)S(=O)(=O)Cc1c(C(=O)N3CCOCC3)nn(-c3ccccc3)c1-2` [Example 165, 3-(Morpholin-4-ylcarbonyl)-1-phenyl-1,4-dihydrothiochromeno[4,3-c]pyrazol-7-amine 5,5-dioxide], the IC50 was determined as 1130 nM.

`O=C(c1nn(-c2cccc(Nc3ccccc3)c2)c2c1CS(=O)(=O)c1ccccc1-2)N1CCOCC1` [Example 166, {3-[3-(Morpholin-4-ylcarbonyl)-5,5-dioxidothiochromeno[4,3-c]pyrazol-1 (4H)-yl]phenyl}phenylamine]: the IC50 amounted to 2700 nM.

Regarding `O=C(c1nn(-c2ccc(CN3CCC(F)CC3)cc2)c2c1CS(=O)(=O)c1ccccc1-2)N1CCOCC1` [Example 167, 1-{4-[(4-Fluoropiperidin-1-yl)methyl]phenyl}-3-(morpholin-4-ylcarbonyl)-1,4-dihydrothiochromeno[4,3-c]pyrazole 5,5-dioxide], the IC50 was determined as 247 nM. Turning to `O=C(c1nn(-c2ccc(CN3CCCCC3)cc2)c2c1CS(=O)(=O)c1ccccc1-2)N1CCOCC1` [Example 169, 3-(Morpholin-4-ylcarbonyl)-1-[4-(piperidin-1-ylmethyl)phenyl]-1,4-dihydrothiochromeno[4,3-c]pyrazole 5,5-dioxide], the IC50 was determined as 110 nM. Take `O=C(c1nn(C2CCC(F)(F)CC2)c2c1CS(=O)(=O)c1ccccc1-2)N1CCOCC1` [Example 170, 1-(4,4-Difluorocyclohexyl)-3-(morpholin-4-ylcarbonyl)-1,4-dihydrothiochromeno[4,3-c]pyrazole 5,5-dioxide]: the IC50 is 386 nM. In the case of `CC1(C)CCCC(n2nc(C(=O)N3CCOCC3)c3c2-c2ccccc2S(=O)(=O)C3)C1` (centres unmarked) [Example 171, 1-(3,3-Dimethylcyclohexyl)-3-(morpholin-4-ylcarbonyl)-1,4-dihydrothiochromeno[4,3-c]pyrazole 5,5-dioxide], the IC50 amounted to 498 nM. As to `COCCCN1CCCC(n2nc(C(=O)N3CCOCC3)c3c2-c2ccccc2S(=O)(=O)C3)C1` (centres unmarked) [Example 172, 1-[1-(3-Methoxypropyl)piperidin-3-yl]-3-(morpholin-4-ylcarbonyl)-1,4-dihydrothiochromeno[4,3-c]pyrazole 5,5-dioxide], the IC50 was 140 nM. In the case of `CC(C)CCN1CCCC(n2nc(C(=O)N3CCOCC3)c3c2-c2ccccc2S(=O)(=O)C3)C1` (centres unmarked) [Example 173, 1-[1-(3-Methylbutyl)piperidin-3-yl]-3-(morpholin-4-ylcarbonyl)-1,4-dihydrothiochromeno[4,3-c]pyrazole 5,5-dioxide], the IC50 was determined as 138 nM. In the case of `O=C(c1nn(C2CCCN(Cc3ccccc3)C2)c2c1CS(=O)(=O)c1ccccc1-2)N1CCOCC1` (centres unmarked) [Example 174, 1-(1-Benzylpiperidin-3-yl)-3-(morpholin-4-ylcarbonyl)-1,4-dihydrothiochromeno[4,3-c]pyrazole 5,5-dioxide], the IC50 is 540 nM. `O=C(c1nn(C2CCCN(CCN3CCOCC3)C2)c2c1CS(=O)(=O)c1ccccc1-2)N1CCOCC1` (centres unmarked) [Example 175, 3-(Morpholin-4-ylcarbonyl)-1-[1-(2-morpholin-4-ylethyl)piperidin-3-yl]-1,4-dihydrothiochromeno[4,3-c]pyrazole 5,5-dioxide]: the IC50 was 122 nM. As for `CN(C)c1cccc(-n2nc(C(=O)N3CCOCC3)c3c2-c2ccccc2S(=O)(=O)C3)c1` [Example 177, N,N-Dimethyl-3-[3-(morpholin-4-ylcarbonyl)-5,5-dioxidothiochromeno[4,3-c]pyrazol-1 (4H)-yl]aniline], the figure is 4720 nM; as for `O=C(c1nn(-c2cccc(CN3CCCCC3)c2)c2c1CS(=O)(=O)c1ccccc1-2)N1CCOCC1` [Example 178, 3-(Morpholin-4-ylcarbonyl)-1-[3-(piperidin-1-ylmethyl)phenyl]-1,4-dihydrothiochromeno[4,3-c]pyrazole 5,5-dioxide], 394 nM; as for `CN(C)Cc1cccc(-n2nc(C(=O)N3CCOCC3)c3c2-c2ccccc2S(=O)(=O)C3)c1` [Example 179, N,N-Dimethyl-1-{3-[3-(morpholin-4-ylcarbonyl)-5,5-dioxidothiochromeno[4,3-c]pyrazol-1 (4H)-yl]phenyl}methanamine], 1110 nM. The result for `CS(=O)(=O)Nc1cccc(-n2nc(C(=O)N3CCOCC3)c3c2-c2ccccc2S(=O)(=O)C3)c1` [Example 180, N-{3-[3-(Morpholin-4-ylcarbonyl)-5,5-dioxidothiochromeno[4,3-c]pyrazol-1 (4H)-yl]phenyl)methanesulfonamide] reads 1780 nM; that for `O=C(c1nn(-c2cccc(N3CCCC3)c2)c2c1CS(=O)(=O)c1ccccc1-2)N1CCOCC1` [Example 181, 3-(Morpholin-4-ylcarbonyl)-1-(3-pyrrolidin-1-ylphenyl)-1,4-dihydrothiochromeno[4,3-c]pyrazole 5,5-dioxide], 4950 nM; that for `Cc1nnc(-c2cccc(-n3nc(C(=O)N4CCOCC4)c4c3-c3ccccc3S(=O)(=O)C4)c2)o1` [Example 182, 1-[3-(5-Methyl-1,3,4-oxadiazol-2-yl)phenyl]-3-(morpholin-4-ylcarbonyl)-1,4-dihydrothiochromeno[4,3-c]pyrazole 5,5-dioxide], 1200 nM.

In the case of `Cc1nnc(-c2cccc(-n3nc(C(=O)N4CCOCC4)c4c3-c3ccccc3S(=O)(=O)C4)c2)s1` [Example 183, 1-[3-(5-Methyl-1,3,4-thiadiazol-2-yl)phenyl]-3-(morpholin-4-ylcarbonyl)-1,4-dihydrothiochromeno[4,3-c]pyrazole 5,5-dioxide], the IC50 stood at 661 nM.

On to `Cc1noc(C)c1-c1cccc(-n2nc(C(=O)N3CCOCC3)c3c2-c2ccccc2S(=O)(=O)C3)c1` [Example 184, 1-[3-(3,5-Dimethylisoxazol-4-yl)phenyl]-3-(morpholin-4-ylcarbonyl)-1,4-dihydrothiochromeno[4,3-c]pyrazole 5,5-dioxide], for which the IC50 came to 300 nM. Turning to `Cn1cc(-c2cccc(-n3nc(C(=O)N4CCOCC4)c4c3-c3ccccc3S(=O)(=O)C4)c2)cn1` [Example 185, 1-[3-(1-Methyl-1H-pyrazol-4-yl)phenyl]-3-(morpholin-4-ylcarbonyl)-1,4-dihydrothiochromeno[4,3-c]pyrazole 5,5-dioxide], the IC50 came to 184 nM. Consider `Nc1ncc(-c2cccc(-n3nc(C(=O)N4CCOCC4)c4c3-c3ccccc3S(=O)(=O)C4)c2)cn1` [Example 186, 5-{3-[3-(Morpholin-4-ylcarbonyl)-5,5-dioxidothiochromeno[4,3-c]pyrazol-1 (4H)-yl]phenyl}pyrimidin-2-amine], for which the IC50 amounted to 454 nM.

As for `O=C(c1nn(-c2cccc(-c3ccncc3)c2)c2c1CS(=O)(=O)c1ccccc1-2)N1CCOCC1` [Example 187, 3-(Morpholin-4-ylcarbonyl)-1-(3-pyridin-4-ylphenyl)-1,4-dihydrothiochromeno[4,3-c]pyrazole 5,5-dioxide], the IC50 turned out to be 193 nM.

As to `O=C(c1nn(-c2cccc(-c3cnn(CCN4CCOCC4)c3)c2)c2c1CS(=O)(=O)c1ccccc1-2)N1CCOCC1` [Example 188, 3-(Morpholin-4-ylcarbonyl)-1-{3-[1-(2-morpholin-4-ylethyl)-1H-pyrazol-4-yl]phenyl)-1,4-dihydrothiochromeno[4,3-c]pyrazole 5,5-dioxide], the IC50 worked out at 338 nM. Regarding `O=C(c1nn(-c2cccc(-c3nccs3)c2)c2c1CS(=O)(=O)c1ccccc1-2)N1CCOCC1` [Example 189, 3-(Morpholin-4-ylcarbonyl)-1-[3-(1,3-thiazol-2-yl)phenyl]-1,4-dihydrothiochromeno[4,3-c]pyrazole 5,5-dioxide], the IC50 was 4220 nM.
